Reference: paper PMC11676098, “New Benzofuran–Pyrazole-Based Compounds as Promising Antimicrobial Agents: Design, Synthesis, DNA Gyrase B Inhibition, and In Silico Studies” (Pharmaceuticals, 2024)

Target: T1, E. coli DNA gyrase B (Escherichia coli, UniProt P0AES6)
T1 construct: gene gyrB
Assay: in vitro E. coli DNA gyrase enzyme inhibition assay (manufacturer's protocol)
Assay type: biochemical

SMILES | IC50 [µM]
CC(=O)n1c(C)nc2c(C#N)c(-c3cn(-c4ccccc4)nc3-c3cc4ccccc4o3)c(C#N)c(=O)n21 [compound 10, 3-Acetyl-7-(3-(benzofuran-2-yl)-1-phenyl-1H-pyrazol-4-yl)-3,5-dihydro-2-methyl-5-oxo-[1,2,4]triazolo[1,5-a]pyridine-6,8-dicarbonitrile] | 32.2 ± 0.1
N#Cc1c(-c2cn(-c3ccccc3)nc2-c2cc3ccccc3o2)c(C#N)c(=O)n2c1NCCN2 [compound 9, 8-(3-(Benzofuran-2-yl)-1-phenyl-1H-pyrazol-4-yl)-6-oxo-1,3,4,6-tetrahydro-2H-pyrido[1,2-b][1,2,4]triazine-7,9-dicarbonitrile] | 9.8 ± 0.21
